From US11034672B1, “Tyrosine kinase inhibitor compositions, methods of making and methods of use” (Black Diamond Therapeutics, Inc., priority 2018, dated 2021) come the findings set out here.

Holding throughout (assay type): cell-based
For test [1], the target named is T1, EGFR WT (Homo sapiens, UniProt P00533). Kind of test: Activity for inhibiting EGFR (Table A), EGFR WT. To be noted: read-out: EGFR WT, potency code (IC50).
Test [2] has as its target T2, EGFR V3 (Homo sapiens, UniProt P00533, DELINS30-297G).
T2 construct: expressed in transfected cells; host or cells: BaF3 (murine pro-B), retroviral pMXs-IRES-Blasticidin
Briefly: Activity for inhibiting EGFR (Table A), EGFR V3 (EGFR-Viii). To be noted: read-out: EGFR V3, potency code (IC50).

Test [3] addresses T3, HER2 S310F (Homo sapiens, UniProt P04626, S310F).
T3 construct: expressed in transfected cells; host or cells: BaF3 (murine pro-B)
Briefly: Activity for inhibiting HER2 (Table B), HER2 S310F. To be noted: read-out: HER2 S310F, potency code (IC50). Here is the method:
(§1) EC50 values were determined with the same application.

Test [4] has as its target T4, HER2 YVMA (Homo sapiens, UniProt P04626, INS775YVMA).
T4 construct: expressed in transfected cells; host or cells: BaF3 (murine pro-B)
Briefly: Activity for inhibiting HER2 (Table B), HER2 YVMA. To be noted: read-out: HER2 YVMA, potency code (IC50). Here is the method:
as §1

Test [5] concerns the target T1, EGFR WT. Kind of test: BaF3 cell proliferation assay, EGFR WT (Table A). To be noted: potency code, 3 days, CellTiterGlo, read-out: EGFR WT (Activity for Inhibiting EGFR). Here is the method: (§2) Retroviral Production: EGFR mutants were subcloned into pMXs-IRES-Blasticidin (RTV-016, Cell Biolabs, San Diego, Calif.). Retroviral expression vector retrovirus was produced by transient transfection of HEK 293T cells with the retroviral EGFR mutant expression vector pMXs-IRES-Blasticidin (RTV-016, Cell Biolabs), pCMV-Gag-Pol vector and pCMV-VSV-G-Envelope vector. Briefly, HEK 293T/17 cells were plated in 100 mm collagen coated plate (354450, Corning Life Sciences, Tewksbury, Mass.) (4×10^5 per plate) and incubated overnight. The next day, retroviral plasmids (3 μg of EGFR mutant, 1.0 μg of pCMV-Gag-Pol and 0.5 μg pCMV-VSV-G) were mixed in 500 μl of Optimem (31985, Life Technologies). The mixture was incubated at room temperature for 5 min and then added to Optimem containing transfection reagent Lipofectamine (11668, Invitrogen) and incubated for 20 minutes. Mixture was then added dropwise to HEK 293T cells. The next day the medium was replaced with fresh culture medium and retrovirus was harvested @ 24 and 48 hrs.
(§3) Generation of EGFR mutant stable cell lines: BaF3 cells (1.5E5 cells) were infected with 1 ml of viral supernatant supplemented with 8 μg/ml polybrene by centrifuging for 30 min at 1000 rpm. Cells were placed in a 37° C. incubator overnight. Cells were then spun for 5 minutes to pellet the cells. Supernatant was removed and cells re-infected a fresh 1 ml of viral supernatant supplemented with 8 μg/ml polybrene by centrifuging for 30 min at 1000 rpm. Cells were placed in 37° C. incubator overnight. […] After 48 hours cells were selected for retroviral infection in 10 μg/ml Blasticidin for one week. Blasticidin resistant populations were washed twice in phosphate buffered saline before plating in media lacking IL-3 to select for IL-3 independent growth.
as §1

For test [6], the target named is T2, EGFR V3. Briefly: BaF3 cell proliferation assay, EGFR V3 (Table A). To be noted: potency code, 3 days, CellTiterGlo, read-out: EGFR V3 (Activity for Inhibiting EGFR). As for the experimental part:
as §2, §3, §1

The target of test [7] is T3, HER2 S310F. Briefly: BaF3 cell proliferation assay, HER2 S310F (Table B). As to conditions: potency code, 3 days, CellTiterGlo, read-out: HER2 S310F (Activity for Inhibiting HER2).
Test [8] deals with T4, HER2 YVMA. Briefly: BaF3 cell proliferation assay, HER2 YVMA (Table B). To be noted: potency code, 3 days, CellTiterGlo, read-out: HER2 YVMA (Activity for Inhibiting HER2).

Structures are written as SMILES.

T1 sequence (P00533 25-1210 N540K): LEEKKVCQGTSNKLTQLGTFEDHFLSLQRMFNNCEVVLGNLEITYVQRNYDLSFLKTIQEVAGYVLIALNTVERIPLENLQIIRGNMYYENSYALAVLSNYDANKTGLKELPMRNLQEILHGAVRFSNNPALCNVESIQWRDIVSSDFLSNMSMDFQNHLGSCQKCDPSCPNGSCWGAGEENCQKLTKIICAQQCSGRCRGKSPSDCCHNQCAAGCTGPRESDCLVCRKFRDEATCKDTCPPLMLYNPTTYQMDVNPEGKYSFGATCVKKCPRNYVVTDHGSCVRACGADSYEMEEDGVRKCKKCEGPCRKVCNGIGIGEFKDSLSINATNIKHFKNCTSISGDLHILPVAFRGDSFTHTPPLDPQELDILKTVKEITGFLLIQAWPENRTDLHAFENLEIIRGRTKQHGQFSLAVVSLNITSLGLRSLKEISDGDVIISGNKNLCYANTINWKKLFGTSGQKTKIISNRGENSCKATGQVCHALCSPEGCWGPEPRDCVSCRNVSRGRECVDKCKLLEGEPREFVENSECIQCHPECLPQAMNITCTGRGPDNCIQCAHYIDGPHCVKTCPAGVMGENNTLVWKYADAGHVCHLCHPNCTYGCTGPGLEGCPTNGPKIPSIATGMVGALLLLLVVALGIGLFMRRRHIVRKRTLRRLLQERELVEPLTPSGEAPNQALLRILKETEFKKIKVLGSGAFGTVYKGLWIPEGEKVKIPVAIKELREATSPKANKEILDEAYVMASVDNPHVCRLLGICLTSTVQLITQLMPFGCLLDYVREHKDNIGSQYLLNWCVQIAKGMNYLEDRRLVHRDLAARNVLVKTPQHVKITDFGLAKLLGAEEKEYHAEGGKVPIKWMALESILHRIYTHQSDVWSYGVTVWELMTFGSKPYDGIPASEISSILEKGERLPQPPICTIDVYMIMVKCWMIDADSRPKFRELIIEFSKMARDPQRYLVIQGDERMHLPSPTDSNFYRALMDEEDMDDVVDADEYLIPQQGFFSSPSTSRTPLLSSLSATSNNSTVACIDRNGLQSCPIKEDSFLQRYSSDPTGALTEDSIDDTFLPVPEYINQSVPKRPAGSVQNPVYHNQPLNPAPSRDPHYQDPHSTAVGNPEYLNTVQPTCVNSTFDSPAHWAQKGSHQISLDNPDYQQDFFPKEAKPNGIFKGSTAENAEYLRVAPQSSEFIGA
T2 sequence (P00533 with tags, fused parts or gaps DELINS30-297G): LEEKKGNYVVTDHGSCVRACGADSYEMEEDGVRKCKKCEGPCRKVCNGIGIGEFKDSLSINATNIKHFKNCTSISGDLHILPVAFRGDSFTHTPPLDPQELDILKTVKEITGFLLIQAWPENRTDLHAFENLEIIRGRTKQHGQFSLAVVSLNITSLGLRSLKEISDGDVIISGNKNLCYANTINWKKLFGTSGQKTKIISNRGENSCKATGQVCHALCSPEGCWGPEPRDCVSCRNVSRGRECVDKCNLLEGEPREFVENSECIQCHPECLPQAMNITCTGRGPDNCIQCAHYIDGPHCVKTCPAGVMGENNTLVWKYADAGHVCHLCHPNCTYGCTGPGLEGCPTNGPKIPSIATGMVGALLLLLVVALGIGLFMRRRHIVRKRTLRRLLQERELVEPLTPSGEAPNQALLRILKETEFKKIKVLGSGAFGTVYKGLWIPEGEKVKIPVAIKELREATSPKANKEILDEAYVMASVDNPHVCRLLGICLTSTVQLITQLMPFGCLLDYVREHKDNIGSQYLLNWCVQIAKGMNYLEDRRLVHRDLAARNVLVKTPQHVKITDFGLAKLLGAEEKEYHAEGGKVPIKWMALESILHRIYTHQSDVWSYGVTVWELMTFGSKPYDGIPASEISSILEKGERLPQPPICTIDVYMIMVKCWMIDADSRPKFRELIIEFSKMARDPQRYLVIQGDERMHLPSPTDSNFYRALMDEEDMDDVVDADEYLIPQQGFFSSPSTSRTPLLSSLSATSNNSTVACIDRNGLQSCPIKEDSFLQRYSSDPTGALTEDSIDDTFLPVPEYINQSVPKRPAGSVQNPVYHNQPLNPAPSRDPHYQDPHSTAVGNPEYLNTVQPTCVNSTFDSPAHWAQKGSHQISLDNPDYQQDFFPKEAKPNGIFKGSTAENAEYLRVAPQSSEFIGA
T3 sequence (P04626 23-1255 S310F): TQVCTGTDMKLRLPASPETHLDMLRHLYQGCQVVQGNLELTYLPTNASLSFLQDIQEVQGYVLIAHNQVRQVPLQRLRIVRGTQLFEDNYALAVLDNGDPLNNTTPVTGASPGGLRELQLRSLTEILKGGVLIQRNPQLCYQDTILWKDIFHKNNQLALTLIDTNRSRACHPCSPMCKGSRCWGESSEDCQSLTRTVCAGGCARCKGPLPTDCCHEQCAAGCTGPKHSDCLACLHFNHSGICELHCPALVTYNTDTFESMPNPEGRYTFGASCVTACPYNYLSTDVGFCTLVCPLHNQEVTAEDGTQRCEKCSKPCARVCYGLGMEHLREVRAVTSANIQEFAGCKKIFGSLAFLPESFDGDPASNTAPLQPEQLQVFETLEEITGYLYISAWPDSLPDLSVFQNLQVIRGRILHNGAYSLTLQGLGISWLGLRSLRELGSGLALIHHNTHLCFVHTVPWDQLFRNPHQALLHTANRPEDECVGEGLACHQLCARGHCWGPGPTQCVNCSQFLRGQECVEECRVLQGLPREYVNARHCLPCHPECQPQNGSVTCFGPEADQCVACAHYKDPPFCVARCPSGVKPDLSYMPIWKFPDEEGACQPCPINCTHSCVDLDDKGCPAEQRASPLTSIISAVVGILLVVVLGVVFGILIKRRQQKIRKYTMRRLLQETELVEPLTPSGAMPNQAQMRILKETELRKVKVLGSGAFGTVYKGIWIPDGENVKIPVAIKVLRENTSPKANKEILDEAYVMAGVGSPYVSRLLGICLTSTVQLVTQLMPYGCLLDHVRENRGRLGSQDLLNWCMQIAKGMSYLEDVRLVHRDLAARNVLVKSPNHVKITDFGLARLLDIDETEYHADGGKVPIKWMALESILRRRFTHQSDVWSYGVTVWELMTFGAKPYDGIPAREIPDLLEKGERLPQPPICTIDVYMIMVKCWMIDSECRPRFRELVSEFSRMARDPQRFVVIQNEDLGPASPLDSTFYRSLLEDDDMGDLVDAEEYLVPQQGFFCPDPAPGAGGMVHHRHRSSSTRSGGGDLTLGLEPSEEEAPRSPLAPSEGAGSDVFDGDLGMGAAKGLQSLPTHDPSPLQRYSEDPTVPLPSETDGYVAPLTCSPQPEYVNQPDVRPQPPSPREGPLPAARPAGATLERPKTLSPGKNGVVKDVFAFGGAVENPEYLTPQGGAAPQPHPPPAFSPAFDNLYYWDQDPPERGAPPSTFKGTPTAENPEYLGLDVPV
T4 sequence (P04626 with tags, fused parts or gaps INS775YVMA): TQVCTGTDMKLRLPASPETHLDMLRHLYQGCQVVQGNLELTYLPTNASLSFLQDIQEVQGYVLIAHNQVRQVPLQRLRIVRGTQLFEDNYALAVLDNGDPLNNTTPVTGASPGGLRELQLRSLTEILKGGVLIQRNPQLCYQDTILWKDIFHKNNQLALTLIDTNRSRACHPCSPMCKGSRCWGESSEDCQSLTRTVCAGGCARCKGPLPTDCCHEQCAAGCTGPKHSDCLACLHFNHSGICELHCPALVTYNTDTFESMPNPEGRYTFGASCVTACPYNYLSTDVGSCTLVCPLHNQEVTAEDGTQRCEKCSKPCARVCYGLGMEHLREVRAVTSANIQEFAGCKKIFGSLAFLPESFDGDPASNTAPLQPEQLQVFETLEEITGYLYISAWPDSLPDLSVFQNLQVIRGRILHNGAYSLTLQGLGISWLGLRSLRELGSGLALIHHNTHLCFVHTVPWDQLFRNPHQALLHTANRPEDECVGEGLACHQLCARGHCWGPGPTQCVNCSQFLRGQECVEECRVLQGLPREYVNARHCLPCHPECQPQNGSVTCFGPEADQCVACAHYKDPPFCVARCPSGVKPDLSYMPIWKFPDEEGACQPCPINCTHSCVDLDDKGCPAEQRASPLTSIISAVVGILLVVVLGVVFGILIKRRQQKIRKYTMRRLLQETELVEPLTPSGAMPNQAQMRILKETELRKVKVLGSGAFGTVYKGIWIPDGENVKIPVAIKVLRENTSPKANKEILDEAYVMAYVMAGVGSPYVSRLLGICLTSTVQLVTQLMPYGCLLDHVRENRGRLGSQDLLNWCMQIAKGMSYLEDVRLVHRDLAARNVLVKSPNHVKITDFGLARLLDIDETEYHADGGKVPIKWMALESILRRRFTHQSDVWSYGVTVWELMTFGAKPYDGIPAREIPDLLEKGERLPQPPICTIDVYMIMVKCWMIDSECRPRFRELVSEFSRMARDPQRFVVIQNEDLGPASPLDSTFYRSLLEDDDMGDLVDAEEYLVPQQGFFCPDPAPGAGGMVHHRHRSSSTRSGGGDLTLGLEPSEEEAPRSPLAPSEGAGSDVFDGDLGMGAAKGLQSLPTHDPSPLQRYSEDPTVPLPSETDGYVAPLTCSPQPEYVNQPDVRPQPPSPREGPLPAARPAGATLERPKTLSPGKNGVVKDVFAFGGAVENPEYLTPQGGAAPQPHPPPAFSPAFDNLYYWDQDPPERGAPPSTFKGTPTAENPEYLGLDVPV

Consider `C=CC(=O)Nc1cc2c(Nc3ccc(OCc4ccccn4)c(Cl)c3)ncnc2cc1C#C[C@H]1CCNC1` [compound 86, N-(4-((3-chloro-4-(pyridin-2-ylmethoxy)phenyl)amino)-7-(pyrrolidin-3-ylethynyl)quinazolin-6-yl)acrylamide], for which the IC50 at EGFR WT [1] lay within 500 to 1000 nM; on EGFR V3 [2] it was 100 to 200 nM; at HER2 S310F [3] it was 20 to 30 nM; on HER2 YVMA [4] it was 100 to 200 nM; at EGFR WT [5], 500 to 1000 nM; at EGFR V3 [6], 100 to 200 nM. In addition, the IC50 at HER2 S310F [7] lay within 20 to 30 nM; at HER2 YVMA [8] it was 100 to 200 nM.

As for `C=CC(=O)Nc1cc2c(Nc3ccc(OCc4ccccn4)c(Cl)c3)ncnc2cc1C#C[C@@H]1CCCN1C` [compound 87, N-(4-((3-chloro-4-(pyridin-2-ylmethoxy)phenyl)amino)-7-((1-methylpyrrolidin-2-yl)ethynyl)quinazolin-6-yl)acrylamide], the IC50 at EGFR WT [1] is above 1000 nM; at EGFR V3 [2], 100 to 200 nM; on HER2 S310F [3] it was 30 to 50 nM; on HER2 YVMA [4], 200 to 300 nM; at EGFR WT [5], above 1000 nM; at EGFR V3 [6], 100 to 200 nM. Besides, the IC50 on HER2 S310F [7] fell in the range of 30 to 50 nM; on HER2 YVMA [8] it was 200 to 300 nM.

In the case of `C=CC(=O)Nc1cc2c(Nc3ccc(OCc4ccccn4)c(Cl)c3)ncnc2cc1C#CC(C)(C)NC` [compound 88, N-(4-((3-chloro-4-(pyridin-2-ylmethoxy)phenyl)amino)-7-(3-methyl-3-(methylamino)but-1-yn-1-yl)quinazolin-6-yl)acrylamide], the IC50 was in the range of 500 to 1000 nM at EGFR WT [1]; 30 to 50 nM on EGFR V3 [2]; 10 to 20 nM at HER2 S310F [3]; 100 to 200 nM on HER2 YVMA [4]; 500 to 1000 nM at EGFR WT [5]; 30 to 50 nM on EGFR V3 [6]. For the same compound, the IC50 at HER2 S310F [7] fell in the range of 10 to 20 nM; at HER2 YVMA [8] it was 100 to 200 nM.

In the case of `CC#CC(=O)Nc1cc2c(Nc3ccc(OCc4ccccn4)c(Cl)c3)ncnc2cc1C#CC(C)(C)N1CCN(C)CC1` [compound 89, N-(4-((3-chloro-4-(pyridin-2-ylmethoxy)phenyl)amino)-7-(3-methyl-3-(4-methylpiperazin-1-yl)but-1-yn-1-yl)quinazolin-6-yl)but-2-ynamide], the IC50 lay in the range of 50 to 100 nM on EGFR WT [1]; 30 to 50 nM at EGFR V3 [2]; 10 to 20 nM on HER2 S310F [3]; 50 to 100 nM on HER2 YVMA [4]; 50 to 100 nM on EGFR WT [5]; 30 to 50 nM on EGFR V3 [6]. The IC50 lay within 10 to 20 nM on HER2 S310F [7] and 50 to 100 nM on HER2 YVMA [8].

As for `C=CC(=O)Nc1cc2c(Nc3ccc(OCc4ccccn4)c(Cl)c3)ncnc2cc1OC[C@H]1COCCN1` [compound 90, N-(4-((3-chloro-4-(pyridin-2-ylmethoxy)phenyl)amino)-7-(morpholin-3-ylmethoxy)quinazolin-6-yl)acrylamide], the IC50 at EGFR WT [1] lay within 500 to 1000 nM; at EGFR V3 [2] it was 30 to 50 nM; at HER2 S310F [3], 20 to 30 nM; at HER2 YVMA [4], 100 to 200 nM; at EGFR WT [5], 500 to 1000 nM; on EGFR V3 [6], 30 to 50 nM. Besides, the IC50 on HER2 S310F [7] fell in the range of 20 to 30 nM; on HER2 YVMA [8], 100 to 200 nM.

On to `C=CC(=O)Nc1cc2c(Nc3ccc(Oc4ccccc4)c(Cl)c3)ncnc2cc1O[C@@H]1CCN(C)C1` [compound 91, (R)-N-(4-((3-chloro-4-phenoxyphenyl)amino)-7-((1-methylpyrrolidin-3-yl)oxy)quinazolin-6-yl)acrylamide], for which the IC50 lay within 500 to 1000 nM at EGFR WT [1]; 50 to 100 nM at EGFR V3 [2]; 30 to 50 nM at HER2 S310F [3]; 200 to 300 nM on HER2 YVMA [4]; 500 to 1000 nM at EGFR WT [5]; 50 to 100 nM on EGFR V3 [6]. In addition, the IC50 lay in the range of 30 to 50 nM at HER2 S310F [7] and 200 to 300 nM at HER2 YVMA [8].

Regarding `C=CC(=O)Nc1cc2c(Nc3ccc(OCc4ccccn4)c(Cl)c3)ncnc2cc1OCCN1CCC2C1CCN2C` (stereo not drawn) [compound 92, N-(4-((3-chloro-4-(pyridin-2-ylmethoxy)phenyl)amino)-7-(2-(4-methylhexahydropyrrolo[3,2-b]pyrrol-1(2H)-yl)ethoxy)quinazolin-6-yl)acrylamide], the IC50 on EGFR WT [1] fell in the range of 100 to 200 nM; at EGFR V3 [2], 30 to 50 nM; on HER2 S310F [3], 20 to 30 nM; at HER2 YVMA [4], 100 to 200 nM; on EGFR WT [5] it was 100 to 200 nM; on EGFR V3 [6] it was 30 to 50 nM. Moreover, the IC50 is 20 to 30 nM on HER2 S310F [7] and 100 to 200 nM at HER2 YVMA [8].

As to `C=CC(=O)Nc1cc2c(Nc3ccc(OCc4ccccn4)c(Cl)c3)ncnc2cc1N1CC(N(C)C)C1` [compound 93, N-(4-((3-chloro-4-(pyridin-2-ylmethoxy)phenyl)amino)-7-(3-(dimethylamino)azetidin-1-yl)quinazolin-6-yl)acrylamide], the IC50 at EGFR WT [1] is above 1000 nM; on EGFR V3 [2], 200 to 300 nM; on HER2 S310F [3] it was 500 to 1000 nM; at HER2 YVMA [4] it was above 1000 nM; on EGFR WT [5], above 1000 nM; at EGFR V3 [6], 200 to 300 nM. Moreover, the figures for the IC50 at HER2 S310F [7] and on HER2 YVMA [8] were 500 to 1000 nM and above 1000 nM, respectively.

`C=CC(=O)Nc1cc2c(Nc3ccc(OCc4ccccn4)c(Cl)c3)ncnc2cc1OCC(C)(C)N(C)C` [compound 94, N-(4-((3-chloro-4-(pyridin-2-ylmethoxy)phenyl)amino)-7-(2-(dimethylamino)-2-methylpropoxy)quinazolin-6-yl)acrylamide]: the IC50 at EGFR WT [1] lay in the range of 300 to 500 nM; on EGFR V3 [2], 30 to 50 nM; at HER2 S310F [3], 30 to 50 nM; on HER2 YVMA [4], 300 to 500 nM; on EGFR WT [5], 300 to 500 nM; on EGFR V3 [6], 30 to 50 nM. For the same compound, the IC50 at HER2 S310F [7] was 30 to 50 nM; at HER2 YVMA [8] it was 300 to 500 nM.

Take `C=CC(=O)Nc1cc2c(Nc3ccc(OCc4ccccn4)c(Cl)c3)ncnc2cc1OCC[C@H]1CCCN1C` [compound 95, N-(4-((3-chloro-4-(pyridin-2-ylmethoxy)phenyl)amino)-7-(2-(1-methylpyrrolidin-2-yl)ethoxy)quinazolin-6-yl)acrylamide]: the IC50 on EGFR WT [1] was in the range of 100 to 200 nM; on EGFR V3 [2] it was 20 to 30 nM; on HER2 S310F [3] it was 5 to 10 nM; on HER2 YVMA [4], 30 to 50 nM; on EGFR WT [5], 100 to 200 nM; on EGFR V3 [6] it was 20 to 30 nM. The figures for the IC50 at HER2 S310F [7] and on HER2 YVMA [8] were 5 to 10 nM and 30 to 50 nM, respectively.

`C=CC(=O)Nc1cc2c(Nc3cnc(NCc4ccccn4)c(Cl)c3)ncnc2cc1OCCN1CCOCC1` [compound 97, N-(4-((5-chloro-6-((pyridin-2-ylmethyl)amino)pyridin-3-yl)amino)-7-(2-morpholinoethoxy)quinazolin-6-yl)acrylamide]: the IC50 was 500 to 1000 nM at EGFR WT [1]; 50 to 100 nM at EGFR V3 [2]; 200 to 300 nM on HER2 S310F [3]; 500 to 1000 nM at HER2 YVMA [4]; 500 to 1000 nM at EGFR WT [5]; 50 to 100 nM at EGFR V3 [6]. The IC50 on HER2 S310F [7] was in the range of 200 to 300 nM; on HER2 YVMA [8], 500 to 1000 nM.

With `C=CC(=O)Nc1cc2c(Nc3ccc(OCc4ccccn4)c(Cl)c3)ncnc2cc1OCC1(CN(C)C)CC1` [compound 98, N-(4-((3-chloro-4-(pyridin-2-ylmethoxy)phenyl)amino)-7-((1-((dimethylamino)methyl)cyclopropyl)methoxy)quinazolin-6-yl)acrylamide], the IC50 at EGFR WT [1] lay within 200 to 300 nM; on EGFR V3 [2], 30 to 50 nM; on HER2 S310F [3], 20 to 30 nM; on HER2 YVMA [4] it was 200 to 300 nM; at EGFR WT [5], 200 to 300 nM; on EGFR V3 [6] it was 30 to 50 nM. Moreover, the IC50 at HER2 S310F [7] lay within 20 to 30 nM; at HER2 YVMA [8], 200 to 300 nM.
